Patent US20030153080A1, “Methods for improving conifer embryogenesis” (priority 2002, published 2003)

Tests used:
Type in all cases: cell-based
[1] = test system: Douglas Fir zygotic embryos; test: Zygotic embryo initiation test
Experimental: (§1) Megagametophyte explants were isolated for zygotic initiation tests from loblolly pine summer cones when embryos were at approximately stage 2-4. Seeds were collected from four individual trees of diverse genotypes. Extracted seeds were soaked in running water for 10 minutes, agitated in 10% liquinox supplemented with 2 drops of Tween 20/L (polyoxyethylene-sorbitan monolaurate) for 10 minutes, and rinsed with water for 30 minutes. Seeds were sterilized in a laminar flow hood by agitating in 20% hydrogen peroxide for 10 minutes and rinsing with sterile deionized water. The seed coats, integuments and nucellus were removed to isolate the megagametophytes. Culturing was performed in 24-well culture plates with each well having an approximate volume of 3.0 ml. Two milliliters of media were added into each well.
Embryos of Douglas Fir were obtained, and treated as described in Example 1.
A further example is provided for Douglas Fir. Douglas Fir zygotic embryos were tested for improved initiation when exposed to cultures containing pyruvic acid according to the protocol described in Example 1. Control medium 121 (Table 1C) was supplemented with 60.7 mg/L pyruvic acid to create the test medium (Table 1C, medium 1625). After incubation for eight weeks in the dark, initiation was scored. For tissue exposed to pyruvic acid, mean initiation rates were approximately 35% compared to 32% for the untreated embryos.

[2] = test system: loblolly pine somatic embryos; test: Single somatic embryo initiation test (colony diameter); settings: for Mean Colony Diameter: 0.1 mg/L added to medium 1253, measured at 4½ weeks
Experimental: (§2) For somatic initiation tests, embryos were selected from a liquid suspension culture supplemented with abscisic acid. (Table 1B, medium 16). Each replication consisted of ten adjacent wells on a multiwell plate, with a single stage 2, somatic embryo per well, providing two replications per multiwell plate. Four replications (for a total of 40 explants) were performed per treatment for each genotype. The plates were wrapped in Parafilme wrap to minimize evaporation and incubated at 22-24° C. in the dark for 4-6 weeks or until colony diameters were roughly ¾-1 cm. Typically, a single stage 2 embryo is approximately 0.1 mm in size. During this time period, the single embryo multiplies to form an embryogenic tissue mass of about 5-9 mm in diameter depending on the particular conifer, culture genotype, medium contents, and time. Changes in tissue diameters were used to assay the effects of vitamins or organic acid on early-stage embryo growth and multiplication. Colony diameters were measured using a dissecting scope ocular micrometer.
Osmolarity and pH of the culture media were monitored to ensure that these factors were similar throughout various conditions, and therefore, were not contributing to the observed differences. To analyze the results, the ANOVA statistical analysis was performed.
Single somatic embryo initiation tests were conducted to determine the effect of various vitamins on initiation. Embryos of loblolly pine were obtained and treated as described in Example 1. Isolated explants were incubated either in a control medium (Table 1A, medium 1253), or in the same medium supplemented with the K&M vitamin mixture (Table 1A, medium 1335). […] Evaluation of specific components of the K&M vitamin mixture lead to identification of the components responsible for the observed increase.
Single somatic embryo initiation tests were conducted to determine the effect of alpha-ketoglutaric acid on initiation in loblolly pine. Embryos of loblolly pine were obtained and treated as described in Example 1. The inventors note that a modification to the protocol detailed in Example 1 may be required due to the addition of an organic acid to the base medium. The addition of an acid, such as alpha-ketoglutaric acid, causes media pH to drop and therefore, all media supplemented with alpha-ketoglutaric acid were titrated to pH 5.7 before adding them to the cultures. Titration was performed with KOH, which increased potassium levels in the media by about 0.7 mM.
Single somatic embryo initiation tests were conducted according to the protocol described in Example 1. The inventors note that modification to the protocol detailed in Example 1 may be required due to the addition of an organic acid to the base medium. In culture medium containing 60.72 mg/L pyruvic acid (Table 1B, medium 1462) mean tissue diameter was 7.1 mm compared to a mean tissue diameter of 6.1 for embryos grown on the control medium 1253 indicating a positive correlation between embryo exposure to pyruvic acid and overall initiation. Iterations of this example in loblolly pine yielded similar percentage increases in initiation, e.g., a 7.2 mm mean tissue diameter for medium containing 0.52 mM pyruvic acid compared to 6.5 mm mean tissue diameter in the control medium. As shown herein, this effect is further enhanced by the combinations of multiple organic acids.

[3] = test system: loblolly pine stage 2 somatic embryos; test: Somatic embryo capture test in multiplication medium (colony diameter)
Experimental: as §2
Tests were conducted to determine the effect on somatic embryo capture of a medium supplemented with individual organic acids, such as alpha-ketoglutaric acid. Embryos of loblolly pine were obtained and treated as described in Example 1. Individual stage 2 embryos were selected from liquid maintenance medium and placed in multiplication medium (Table 1B, medium 1250).
Embryos of loblolly pine were obtained and treated as described in Example 1. Individual stage 2 embryos were selected from liquid maintenance medium and placed in multiplication medium (Table 1B, medium 1250). Stage 2 embryos were likewise placed in medium 1250 supplemented with 60.7 mg/L pyruvic acid (Table 1C, medium 1635). All cultures were incubated in the dark at 24-26° C. for 4-5 weeks.
A representative example for somatic capture uses embryos of loblolly pine obtained and treated as described in Example 1. Individual stage 2 embryos were selected from liquid maintenance medium and placed in multiplication medium (Table 1B, medium 1250). Compared to this control, the addition of 0.1 mg/L vitamin B12 alone to the multiplication medium (Table 1B, medium 1250) increased mean colony diameter by approximately 5%. Likewise, the addition of 100 mg/L alpha-ketoglutaric acid alone to the […] (Table 1B, medium 1250) increased mean colony diameter by approximately 10%.
Individual stage 2 embryos were selected from liquid maintenance medium and placed in multiplication control medium (Table 1B, medium 1250), as well as medium 1638, which is supplemented with 0.1 mg/L vitamin B12, 0.1 mg/L vitamin E, 100 mg/L alpha-ketoglutaric acid and 60.7 mg/L pyruvic acid (Table 1C, medium 1638). […]

[4] = test system: loblolly pine megagametophytes; test: Zygotic initiation test with megagametophyte explants (extrusion and initiation); settings: for early extrusion and embryo expansion: supplement present in the medium; for effect on extrusion and initiation efficiency: 0.1 mg/L alone (media 1357, 1359), compared with medium 1391
Experimental: as §1
Zygotic and somatic initiation tests were conducted to determine the effect of alpha-ketoglutaric acid in combination with vitamins B12 and E on initiation. Explants of loblolly pine were obtained and treated as described in Example 1 with the following modifications. Each replication consisted of ten adjacent wells on a multiwell plate, with one megagametophyte per well. Ten replications, for a total of 100 seeds, were performed per treatment for each cone collection.
According to the protocol of Example 1, four loblolly pine cone collections of approximately 500 seeds per collection with embryos at stages 2-4 were selected. Seeds were sterilized and dissected. […] Average initiation across the cone collections was roughly 30% for embryos grown on the control medium and roughly 36% for embryos grown on the test medium.

[5] = test system: Norway Spruce somatic embryos; test: Single somatic embryo initiation test (tissue diameter); settings: 60.7 mg/L (medium 1664); control medium 1662 gave 2.8 mm
Experimental: as §2
Tissue isolated and prepared according to Example 1 was incubated in a medium containing 0.1 mg/L of both vitamin B12 and E for 4-5 weeks in the dark at 24-26° C. (Table 1 D, medium 1665). Tissue cultured in medium 1665 achieved an average diameter of 3.1 mm compared to tissue cultured in the control medium, which achieved an average diameter of 2.8 mm. […]

**Q.** Which results are given for `O=C(O)CCC(=O)C(=O)O` [alpha-ketoglutaric acid]?
**A.** levels of initiation vs control medium 121 ([1]; 100 mg/L (medium 1624)): higher levels of initiation; levels of initiation higher than control as measured by mean colony diameter ([2]; 100 ppm (medium 1342) vs control medium 1253, titrated to pH 5.7): 20%; increase in mean colony diameter vs medium 1250 ([3]; 100 mg/L alpha-ketoglutaric acid alone): approximately 10%; increase in mean colony diameter ([3]; only additive to control medium 1250, between 100 and 200 mg/L): 5-6%; early extrusion and embryo expansion [4]: more robust

**Q.** With `Nc1ccc(C(=O)O)cc1` [p-aminobenzoic acid] as the compound, how does the initiation ([1]; 20 mg/L (medium 1627), base medium 121 gave 32%) read?
**A.** 39%

**Q.** And the “increase in mean colony diameter as compared to the control” value ([2]; 0.2 ppm (medium 1434) vs control medium 1253)?
**A.** 32%

**Q.** How did the “Mean Colony Diameter” value [2] turn out when vitamin E was run?
**A.** 4.65 mm

**Q.** What about the “effect on extrusion and initiation efficiency” value [4] of the same compound?
**A.** some, but a lesser effect

**Q.** And the “early extrusion and embryo expansion” value [4]?
**A.** more robust

**Q.** How did the “Mean Colony Diameter” value [2] turn out when vitamin B12 [reference compound] was run?
**A.** 4.88 mm

**Q.** What about the “increase in mean colony diameter vs medium 1250” value ([3]; 0.1 mg/L vitamin B12 alone) of the same compound?
**A.** approximately 5%

**Q.** What about the “effect on extrusion and initiation efficiency” value [4] of the same compound?
**A.** some, but a lesser effect

**Q.** What does the source list for `CC(=O)C(=O)O` [pyruvic acid]?
**A.** mean initiation rates ([1]; 60.7 mg/L (medium 1625), eight weeks in the dark, untreated 32%): approximately 35%; mean tissue diameter ([2]; 0.52 mM, iteration of the example, control medium gave 6.5 mm): 7.2 mm; mean tissue diameter ([2]; 60.72 mg/L (medium 1462), control medium 1253 gave 6.1): 7.1 mm; mean diameters [5]: 3.6 mm; average diameter ([3]; 60.7 mg/L in medium 1250 (medium 1635), dark, 24-26° C., 4-5 weeks, control 3.3 mm): roughly 3.7 mm
